This is an account of results in patent publication US12441695B2, “Substituted thiadiazinone dioxide and preparation method therefor, herbicidal composition, and application therefor” (Qingdao Kingagroot Chemical Compound Co., Ltd., priority 2019, dated 2025).

Data set [1] has as its system monocotyledonous and dicotyledonous weeds. Put plainly: Experiment on weeding effect in post-emergence stage (weeds). It counts as in vivo. Conditions: 600 g/ha active ingredient plus water 450 kg/ha, 3 weeks after application, fresh weight control rate; for Amaranthus retroflexus activity level (growth control rate): fomesafen-resistant Amaranthus retroflexus. The essentials:
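Greenhouse pot-grown weeds and crops sprayed post-emergence 2–3 weeks after sowing with compound in acetone/Tween 80/water. Fresh-weight growth control scored after 3 weeks on a 0–5 scale (5: >85%, 0: <5%).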

In data set [2] the test system is major crops (wheat, corn, rice, soybean, cotton, oilseed rape, millet, sorghum). Put plainly: Experiment on weeding effect in post-emergence stage (crops). It counts as in vivo. Conditions: 600 g/ha active ingredient plus water 450 kg/ha, 3 weeks after application; for corn plant damage level (growth control rate): crop corn; for rice plant damage level (growth control rate): crop rice; for soybean plant damage level (growth control rate): crop soybean. The essentials: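 Weed and crop seeds were sown in soil-filled pots, covered with 0.5–2 cm soil and grown in a greenhouse. Plants were sprayed 2–3 weeks after sowing using a spray tower, with compound dissolved in acetone plus Tween 80 and diluted in water. Effect was expressed as fresh-weight growth control rate.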

The next data set deals with gramineous weeds. Conditions: in vivo; cited from earlier work.

On to `O=C1c2c(cc(F)c(F)c2F)NS(=O)(=O)N1CCl` [E, reference compound], for which, in data set [1], the “Amaranthus retroflexus activity level (growth control rate)” value (“Amaranthus retroflexus activity level” for short) was 2 (Level 2: growth control rate is greater than or equal to 20% and less than 40%); the “Digitaria sanguinalis activity level (growth control rate)” value (from here on “Digitaria sanguinalis activity level”) is 1 (Level 1: growth control rate is greater than or equal to 500 and less than 200%); the “Echinochloa crus-galli activity level (growth control rate)” value (“Echinochloa crus-galli activity level” for short) is 1 (Level 1: growth control rate is greater than or equal to 500 and less than 200%); the “Setaria viridis activity level (growth control rate)” value (from here on “Setaria viridis activity level”) is 2 (Level 2: growth control rate is greater than or equal to 20% and less than 40%). For the same compound, in data set [2], the “corn plant damage level (growth control rate)” value (shortened to “corn plant damage level”) is 1 (Level 1: growth control rate is greater than or equal to 500 and less than 200%); the “rice plant damage level (growth control rate)” value (“rice plant damage level” for short) was 1 (Level 1: growth control rate is greater than or equal to 500 and less than 200%); the “soybean plant damage level (growth control rate)” value (“soybean plant damage level” below) is 1 (Level 1: growth control rate is greater than or equal to 500 and less than 200%).
Consider `CC(C)N1C(=O)c2cccnc2NS1(=O)=O` [F, reference compound], for which, in data set [1], the “Amaranthus retroflexus activity level” value was 2 (Level 2: growth control rate is greater than or equal to 20% and less than 40%); the “Digitaria sanguinalis activity level” value is 2 (Level 2: growth control rate is greater than or equal to 20% and less than 40%); the “Echinochloa crus-galli activity level” value is 2 (Level 2: growth control rate is greater than or equal to 20% and less than 40%); the “Setaria viridis activity level” value is 2 (Level 2: growth control rate is greater than or equal to 20% and less than 40%). Moreover, in data set [2], the “corn plant damage level” value was 1 (Level 1: growth control rate is greater than or equal to 500 and less than 200%); the “rice plant damage level” value is 1 (Level 1: growth control rate is greater than or equal to 500 and less than 200%); the “soybean plant damage level” value was 1 (Level 1: growth control rate is greater than or equal to 500 and less than 200%).
With `CC(C)N1C(=O)c2ccccc2NS1(=O)=O` [G, reference compound], in data set [1], the “Amaranthus retroflexus activity level” value is 1 (Level 1: growth control rate is greater than or equal to 500 and less than 200%); the “Digitaria sanguinalis activity level” value is recorded as 0 (Level 0: growth control rate is less than 5%); the “Echinochloa crus-galli activity level” value is 0 (Level 0: growth control rate is less than 5%); the “Setaria viridis activity level” value is 1 (Level 1: growth control rate is greater than or equal to 500 and less than 200%). Further, in data set [2], the “corn plant damage level” value was 0 (Level 0: growth control rate is less than 5%); the “rice plant damage level” value is 1 (Level 1: growth control rate is greater than or equal to 500 and less than 200%); the “soybean plant damage level” value is 1 (Level 1: growth control rate is greater than or equal to 500 and less than 200%).
As for `CC(C)N1C(=O)c2ccccc2NS1(=O)=O` [bentazone], the “effect on gramineous weeds” value with gramineous weeds is listed as “ineffective”.
